In general, IC50 refers to the concentration that gives 50% inhibition.

In patent publication US20250197403A1, “HETEROARYL COMPOUNDS FOR TREATMENT OF COMPLEMENT FACTOR D MEDIATED DISORDERS” (Achillion Pharmaceuticals, Inc., priority 2020, published 2025) one finds IC50 data, which are given here for 13 molecules.

Chain of Human Factor D (P00746 26-253): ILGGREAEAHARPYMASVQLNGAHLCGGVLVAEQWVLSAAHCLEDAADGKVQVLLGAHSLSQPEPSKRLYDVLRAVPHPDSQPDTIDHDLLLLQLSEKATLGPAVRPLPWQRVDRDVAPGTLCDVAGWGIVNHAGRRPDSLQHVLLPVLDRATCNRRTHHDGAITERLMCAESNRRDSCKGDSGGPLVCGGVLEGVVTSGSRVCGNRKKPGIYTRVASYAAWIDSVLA

This test addresses Human Factor D (Homo sapiens (Human), UniProt P00746). As to the kind of experiment: Human Factor D Assay. It counts as biochemical. To be noted: Human Factor D 80 nM, substrate Z-L-Lys-SBzl, assay according to Example 3. The essentials: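 Serum-purified factor D (80 nM final) preincubated with compound 5 min at room temperature in 50 mM Tris, 1M NaCl, pH 7.5. Z-L-Lys-SBzl substrate and DTNB added at 100 μM each; A405 read every 30 s for 30 min. IC50 from nonlinear regression of reaction rates versus compound concentration.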
`CC(=O)c1cn(CC(=O)N2C[C@@](F)(CF)C[C@H]2C(=O)Nc2nc(C(F)(F)F)ccc2C)c2c(C)cc(-c3cnc(C)nc3)cc12` [Compound 61, (2S,4R)-1-(2-(3-acetyl-7-methyl-5-(2-methylpyrim-idin-5-yl)-1H-indol-1-yl)-acetyl)-4-fluoro-4-(fluoro-methyl)-N-(3-methyl-6-(trifluoromethyl)pyridin-2-yl)pyrrolidine-2-carbox-amide] gave an IC50 of less than 1 µM. The result for `CC(=O)c1cn(CC(=O)N2C[C@H]3C[C@H]3[C@H]2C(=O)Nc2nc(Br)ccc2C)c2c(C)cc(-c3cnc4cc(C)nn4c3)cc12` [Compound 63, (1R,2S,5S)-3-(2-(3-acetyl-7-methyl-5-(2-methylpyr-azolo[1,5-a]pyrimidin-6-yl)-1H-indol-1-yl)acetyl)-N-(6-bromo-3-methylpyr-idin-2-yl)-3-azabicyclo [3.1.0]hexane-2-carbox-amide] reads less than 1 µM; that for `CC(=O)c1cn(CC(=O)N2[C@H](C(=O)Nc3ccn(CC(F)(F)F)n3)C[C@@]3(C)C[C@@H]23)c2c(C)cc(-c3cnc4cc(C)nn4c3)cc12` [Compound 64, (1R,3S,5R)-2-(2-(3-acetyl-7-methyl-5-(2-methylpyr-azolo[1,5-a]pyrimidin-6-yl)-1H-indol-1-yl)acetyl)-5-methyl-N-(1-(2,2,2-tri-fluoroethyl)-1H-pyrazol-3-yl)-2-azabicyclo[3.1.0] hexane-3-carboxamide], less than 1 µM; that for `CC(=O)c1cn(CC(=O)N2[C@H](C(=O)Nc3ccn(CC(F)(F)F)n3)C[C@@]3(C)C[C@@H]23)c2c(C)cc(-c3ccc4nc(C)nn4c3)cc12` [Compound 65, (1R,3S,5R)-2-(2-(3-acetyl-7-methyl-5-(2-methyl-[1,2,4]triazolo[1,5-a]pyr-idin-6-yl)-1H-indol-1-yl)-acetyl)-5-methyl-N-(1-(2,2,2-trifluoroethyl)-1H-pyrazol-3-yl)-2-azabicyclo [3.1.0]hexane-3-carbox-amide], less than 1 µM. `CC(=O)c1cn(CC(=O)N2C[C@H](F)C[C@H]2C(=O)Nc2ccn(CC(F)(F)F)n2)c2c(C)cc(-c3cnc4cc(C)nn4c3)cc12` [Compound 66, (2S,4R)-1-(2-(3-acetyl-7-methyl-5-(2-methylpyr-azolo[1,5-a]pyrimidin-6-yl)-1H-indol-1-yl)acetyl)-4-fluoro-N-(1-(2,2,2-tri-fluoroethyl)-1H-pyrazol-3-yl)pyrrolidine-2-carbox-amide] showed an IC50 of less than 1 µM.

In turn, `CC(=O)c1cn(CC(=O)N2C[C@H](F)C[C@H]2C(=O)Nc2ccn(CC(F)(F)F)n2)c2ccc(-c3cnc4cc(C)nn4c3)cc12` [Compound 67, (2S,4R)-1-(2-(3-acetyl-5-(2-methylpyrazolo[1,5-a]pyrimidin-6-yl)-1H-indol-1-yl)acetyl)-4-fluoro-N-(1-(2,2,2-trifluoroethyl)-1H-pyrazol-3-yl)pyrrolidine-2-carboxamide] had an IC50 of less than 1 µM. `CC(=O)c1cn(CC(=O)N2[C@H](C(=O)Nc3nc(Br)ccc3Cl)C[C@@]3(C)C[C@@H]23)c2c(C)cc(-c3cnc(C)nc3)cc12` [Compound 68, (1R,3S,5R)-2-(2-(3-acetyl-7-methyl-5-(2-methylpyr-imidin-5-yl)-1H-indol-1-yl)acetyl)-N-(6-bromo-3-chloropyridin-2-yl)-5-methyl-2-azabicyclo[3.1.0] hexane-3-carboxamide] came in with an IC50 of less than 1 µM. The result for `CC(=O)c1nn(CC(=O)N2[C@H](C(=O)Nc3nc(Br)ccc3C)C[C@@]3(C)C[C@@H]23)c2cc3c(cc12)-c1cnc(C)nc1C=CC3` [Compound 69, (1R,3S,5R)-2-(2-(11-acet-yl-3-methylpyrimido [4′,5′:6,7]cyclohepta[1,2-f]indazol-9(7H)-yl)acetyl)-N-(6-bromo-3-methylpyr-idin-2-yl)-5-methyl-2-aza-bicyclo[3.1.0]hexane-3-carboxamide] reads less than 1 µM. As for `CC(=O)c1cn(CC(=O)N2[C@H](C(=O)Nc3nc(C(F)(F)F)c(F)cc3C)C[C@@]3(C)C[C@@H]23)c2c(C)cc(-c3cnc(C)nc3)cc12` [Compound 71, (1R,3S,5R)-2-(2-(3-acetyl-7-methyl-5-(2-methylpyr-imidin-5-yl)-1H-indol-1-yl)acetyl)-N-(5-fluoro-3-methyl-6-(trifluorometh-yl)pyridin-2-yl)-5-methyl-2-azabicyclo[3.1.0]hexane-3-carboxamide], the figure is less than 1 µM; as for `[2H]C([2H])([2H])OC([2H])([2H])c1ccc(C(F)(F)F)nc1NC(=O)[C@@H]1C[C@@]2(C)C[C@H]2N1C(=O)Cn1cc(C(C)=O)c2cc(-c3cnc4cc(C)nn4c3)cc(C)c21` [Compound 80, (1R,3S,5R)-2-(2-(3-acetyl-7-methyl-5-(2-methylpyr-azolo[1,5-a]pyrimidin-6-yl)-1H-indol-1-yl)acetyl)-N-(3-((methoxy-d3)meth-yl-d2)-6-(trifluoromethyl)-pyridin-2-yl)-5-methyl-2-azabicyclo[3.1.0]hexane-3-carboxamide], less than 1 µM; as for `[2H]C([2H])([2H])OCc1ccc(C(F)(F)F)nc1NC(=O)[C@@H]1C[C@@]2(C)C[C@H]2N1C(=O)Cn1cc(C(C)=O)c2cc(-c3ccc4nc(C)nn4c3)cc(C)c21` [Compound 81, (1R,3S,5R)-2-(2-(3-acetyl-7-methyl-5-(2-methyl-[1,2,4]triazolo[1,5-a]pyr-idin-6-yl)-1H-indol-1-yl)-acetyl)-N-(3-((methoxy-d3)methyl-d2)-6-(trifluoro-methyl)pyridin-2-yl)-5-methyl-2-azabicyclo[3.1.0] hexane-3-carboxamide], less than 1 µM. The result for `CC(=O)c1nn(CC(=O)N(C)[C@@H](C)C(=O)Nc2nc(Br)ccc2C)c2cc3c(cc12)-c1cnc(C)nc1CC=C3` [Compound 109, (S)-2-(2-(11-acetyl-3-methylpyrimido[4′,5′:6,7]cyclohepta[1,2-f]indazol-9(5H)-yl)-N-methylacetamido)-N-(6-bromo-3-methylpyridin-2-yl)propanamide] reads less than 1 µM; that for `CC(=O)c1nn(CC(=O)N(C)[C@@H](C)C(=O)Nc2nc(Br)ccc2C)c2cc3c(cc12)-c1cnc(C)nc1C=CC3` [Compound 110, (S)-2-(2-(11-acetyl-3-methylpyrimido[4′,5′:6,7]cyclohepta[1,2-f]indazol-9(7H)-yl)-N-methylacetamido)-N-(6-bromo-3-methylpyridin-2-yl)propanamide], less than 1 µM.
